We go through 20 compounds from US8580784B2, “Method for treating a disease related to the glucocorticoid receptor” (Santen Pharmaceutical Co., Ltd., priority 2006, dated 2013).

The term inhibition denotes the relative decrease from the control value, in per cent.

The test concerns the target T1, Recombinant human GR (Homo sapiens, UniProt P04150).
T1 construct: purchased Invitrogen P2816
T1 sequence (P04150 1-777): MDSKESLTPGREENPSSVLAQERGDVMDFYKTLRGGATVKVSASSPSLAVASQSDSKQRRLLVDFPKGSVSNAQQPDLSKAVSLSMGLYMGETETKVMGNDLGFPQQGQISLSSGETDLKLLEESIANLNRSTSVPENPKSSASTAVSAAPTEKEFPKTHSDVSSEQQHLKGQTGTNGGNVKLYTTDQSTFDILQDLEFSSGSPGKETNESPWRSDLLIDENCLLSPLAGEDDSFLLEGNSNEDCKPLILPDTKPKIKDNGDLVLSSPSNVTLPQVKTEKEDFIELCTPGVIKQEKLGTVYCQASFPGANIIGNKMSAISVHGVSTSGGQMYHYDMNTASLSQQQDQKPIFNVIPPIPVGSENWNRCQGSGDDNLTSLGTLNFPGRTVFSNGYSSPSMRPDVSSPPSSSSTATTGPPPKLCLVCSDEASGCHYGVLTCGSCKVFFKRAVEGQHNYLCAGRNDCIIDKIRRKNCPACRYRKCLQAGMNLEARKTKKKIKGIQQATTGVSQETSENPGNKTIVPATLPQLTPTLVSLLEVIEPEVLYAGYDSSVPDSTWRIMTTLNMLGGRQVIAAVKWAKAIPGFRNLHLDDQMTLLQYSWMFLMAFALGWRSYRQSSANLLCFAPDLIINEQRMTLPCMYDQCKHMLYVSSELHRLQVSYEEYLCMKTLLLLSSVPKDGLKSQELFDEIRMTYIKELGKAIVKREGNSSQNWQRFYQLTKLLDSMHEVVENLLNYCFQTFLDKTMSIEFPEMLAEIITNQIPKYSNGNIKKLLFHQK
The test can be described thus: Evaluation test for binding activity to glucocorticoid receptor: receptor competitor assay by fluorescence polarization (Invitrogen GR competitor assay kit, cat No. P2816). Conditions: 20 μM test compound solution, 10 μL per well plus 5 μL 4×GS1 and 5 μL 4×GR solution; room temperature 2 to 4 hours; a ratio of 100% or more is indicated by 100%. The procedure: A detailed explanation of this matter will be described in the section of “Pharmacological Test” in Examples described below. In order to find the usefulness of the present compound as a pharmaceutical, a glucocorticoid receptor competitor assay was carried out by a fluorescence polarization method by using a glucocorticoid receptor competitor assay kit (manufactured by Invitrogen, cat No. P2816) to study the glucocorticoid receptor binding activity of the present compound.
1. Evaluation Test for Binding Activity to Glucocorticoid Receptor (hereinafter referred to as “GR”)
In order to evaluate a binding activity to GR, a receptor competitor assay was carried out by a fluorescence polarization method. In the assay, a GR competitor assay kit (manufactured by Invitrogen, cat No. P2816) was used, and a procedure was carried out according to the protocol attached to the kit. Hereinafter, the specific method will be described.
(Preparation of Reagents)
GR screening buffer: A buffer containing 10 mM potassium phosphate (pH 7.4), 20 mM sodium molybdate (Na2MoO4), 0.1 mM ethylene diamine tetraacetic acid (EDTA), 5 mM dithiothreitol (DTT), 0.1 mM stabilizing peptide and 2% dimethylsulfoxide was prepared.
4×GS1 solution: Fluormone™ GS1, which is a fluorescent glucocorticoid ligand, was diluted with GR screening buffer, whereby a 4 nM solution was prepared.
4×GR solution: Recombinant human GR was diluted with GR screening buffer, whereby a 16 nM solution was prepared.
(Preparation of Test Compound Solution)
After a test compound was dissolved in dimethylsulfoxide, the resulting solution was diluted with GR screening buffer, whereby a 20 μM test compound solution was prepared.
(Test Method and Measurement Method)
1) The test compound solution was added in an amount of 10 μL into each well of a 384-well plate, and then, 4×GS1 solution and 4×GR solution were added in an amount of 5 μL into each well, respectively.
2) The plate was incubated in a dark place at room temperature for 2 to 4 hours.
3) By using a multimode plate reader, Analyst™ HT (manufactured by LJL Biosystems), fluorescence polarization of each well was measured. As the blank, a well containing GR screening buffer in place of the test compound and 4×GS1 solution was used.
4) The same procedure as that in the above 1) to 3) was carried out except that GR screening buffer was used in place of the test compound solution, and the obtained result was taken as the negative control.
5) The same procedure as that in the above 1) to 3) was carried out except that 2 mM dexamethasone was used in place of the test compound solution, and the obtained result was taken as the positive control.
(Calculation Equation of GR Binding Ratio)
A GR binding ratio (%) was calculated from the following equation. GR binding ratio(%)=100×[1−(fluorescence polarization of test compound solution−fluorescence polarization of positive control solution)/(fluorescence polarization of negative control solution−fluorescence polarization of positive control solution)] (Test Results and Discussion)
`COc1ccc(C(=O)Oc2ccc(-c3ccc4c(c3CNc3ccccc3OC)C(C)=CC(C)(C)N4)c(OC)c2)cc1` [Compound 1-22, 6-[2-Methoxy-4-(4-methoxybenzoyloxy)phenyl]-5-(2-methoxyphenylaminomethyl)-2,2,4-trimethyl-1,2-dihydroquinoline]: the inhibition at 20 µM (stock) worked out at 81%. As for `COc1ccccc1NCc1c(-c2ccc(OC(=O)c3cccs3)cc2OC)ccc2c1C(C)=CC(C)(C)N2` [Compound 1-15, 5-(2-Methoxyphenylaminomethyl)-6-[2-methoxy-4-(thiophen-2-ylcarbonyloxy)phenyl]-2,2,4-trimethyl-1,2-dihydroquinoline], the inhibition at 20 µM (stock) came to 99%.

In the case of `COc1cc(OC(=O)c2cccnc2)ccc1-c1ccc2c(c1CNc1cc(F)ccc1C)C(C)=CC(C)(C)N2` [Compound 1-16, 5-(5-Fluoro-2-methylphenylaminomethyl)-6-[2-methoxy-4-(pyridin-3-ylcarbonyloxy)phenyl]-2,2,4-trimethyl-1,2-dihydroquinoline], the inhibition at 20 µM (stock) was 100%. On the same count and under the same terms, for `COc1cc(OC(=O)c2occc2C)ccc1-c1ccc2c(c1CNc1cc(F)ccc1C)C(C)=CC(C)(C)N2` [Compound 1-42, 5-(5-Fluoro-2-methylphenylaminomethyl)-6-[2-methoxy-4-(3-methylfuran-2-ylcarbonyloxy)phenyl]-2,2,4-trimethyl-1,2-dihydroquinoline] the value was 100%.

Consider `CCCS(=O)(=O)Oc1ccc(-c2ccc3c(c2CNc2cc(F)ccc2C)C(C)=CC(C)(C)N3)c(OC)c1` [Compound 2-6, 5-(5-Fluoro-2-methylphenylaminomethyl)-6-(2-methoxy-4-propylsulfonyloxyphenyl)-2,2,4-trimethyl-1,2-dihydroquioline], for which the inhibition at 20 µM (stock) stood at 100%. The same measure, in the same setting: for `COc1cc(OC(=O)c2ccccc2SC)ccc1-c1ccc2c(c1CNc1cc(F)ccc1C)C(C)=CC(C)(C)N2` [Compound 1-39, 5-(5-Fluoro-2-methylphenylaminomethyl)-6-[4-(2-methylthiobenzoyloxy)-2-methoxyphenyl]-2,2,4-trimethyl-1,2-dihydroquinoline] the value was 100%; for `COc1ccccc1NCc1c(-c2ccc(OC(=O)c3cccc(C(C)=O)c3)cc2OC)ccc2c1C(C)=CC(C)(C)N2` [Compound 1-27, 6-[4-(3-Acetylbenzoyloxy)-2-methoxyphenyl]-5-(2-methoxyphenylaminomethyl)-2,2,4-trimethyl-1,2-dihydroquinoline], 87%; for `COc1ccccc1NCc1c(-c2ccc(OC(=O)c3ccco3)cc2OC)ccc2c1C(C)=CC(C)(C)N2` [Compound 1-1, 6-[4-(Furan-2-ylcarbonyloxy)-2-methoxyphenyl]-5-(2-methoxyphenylaminomethyl)-2,2,4-trimethyl-1,2-dihydroquioline], 92%.

For `COc1ccccc1NCc1c(-c2ccc(OC(=O)Nc3cccnc3)cc2OC)ccc2c1C(C)=CC(C)(C)N2` [Compound 4-3, 5-(2-Methoxyphenylaminomethyl)-6-[2-methoxy-4-(pyridin-3-ylaminocarbonyloxy)phenyl]-2,2,4-trimethyl-1,2-dihydroquioline], the inhibition at 20 µM worked out at 91%. In the case of `COc1cc(OC(=O)c2ccncc2)ccc1-c1ccc2c(c1CNc1cc(F)ccc1C)C(C)=CC(C)(C)N2` [Compound 1-34, 5-(5-Fluoro-2-methylphenylaminomethyl)-6-[2-methoxy-4-(pyridin-4-ylcarbonyloxy)phenyl]-2,2,4-trimethyl-1,2-dihydroquinoline], the inhibition at 20 µM (stock) came to 100%.

Turning to `COc1cc(OC(=O)c2ccccc2F)ccc1-c1ccc2c(c1CNc1cc(F)ccc1C)C(C)=CC(C)(C)N2` [Compound 1-35, 6-[4-(2-Fluorobenzoyloxy)-2-methoxyphenyl]-5-(5-fluoro-2-methylphenylaminomethyl)-2,2,4-trimethyl-1,2-dihydroquinoline], the inhibition at 20 µM (stock) was 100%. Take `COc1ccccc1NCc1c(-c2ccc(OC(=O)c3cccnc3)cc2OC)ccc2c1C(C)=CC(C)(C)N2` [Compound 1-8, 5-(2-Methoxyphenylaminomethyl)-6-[2-methoxy-4-(pyridin-3-ylcarbonyloxy)phenyl]-2,2,4-trimethyl-1,2-dihydroquinoline]: the inhibition at 20 µM turned out to be 98%. `COc1cc(OC(=O)c2ccco2)ccc1-c1ccc2c(c1CNc1cc(F)ccc1C)C(C)=CC(C)(C)N2` [Compound 1-17, 5-(5-Fluoro-2-methylphenylaminomethyl)-6-[4-(furan-2-ylcarbonyloxy)-2-methoxyphenyl]-2,2,4-trimethyl-1,2-dihydroquinoline]: the inhibition at 20 µM (stock) amounted to 99%. The same measure, in the same setting: as for `COc1ccccc1NCc1c(-c2ccc(OC(=O)c3ccccc3OC)cc2OC)ccc2c1C(C)=CC(C)(C)N2` [Compound 1-4, 6-[2-Methoxy-4-(2-methoxybenzoyloxy)phenyl]-5-(2-methoxyphenylaminomethyl)-2,2,4-trimethyl-1,2-dihydroquinoline], the figure is 95%; as for `COc1cc(OS(C)(=O)=O)ccc1-c1ccc2c(c1CNc1cc(F)ccc1C)C(C)=CC(C)(C)N2` [Compound 2-11, 5-(5-Fluoro-2-methylphenylaminomethyl)-6-(2-methoxy-4-methylsulfonyloxyphenyl)-2,2,4-trimethyl-1,2-dihydroquioline], 100%. With `COc1cc(OC(=O)c2cccnc2OC)ccc1-c1ccc2c(c1CNc1cc(F)ccc1C)C(C)=CC(C)(C)N2` [Compound 1-41, 5-(5-Fluoro-2-methylphenylaminomethyl)-6-[2-methoxy-4-(2-methoxypyridin-3-ylcarbonyloxy)phenyl]-2,2,4-trimethyl-1,2-dihydroquinoline], the inhibition at 20 µM (stock) was determined as 100%. With `COc1ccccc1NCc1c(-c2ccc(OC(=O)c3occc3C)cc2OC)ccc2c1C(C)=CC(C)(C)N2` [Compound 1-29, 6-[2-Methoxy-4-(3-methylfuran-2-ylcarbonyloxy)phenyl]-5-(2-methoxyphenylaminomethyl)-2,2,4-trimethyl-1,2-dihydroquinoline], the inhibition at 20 µM (stock) amounted to 93%. Same read-out and setting: as for `COc1ccccc1NCc1c(-c2ccc(OC(=O)c3ccccc3SC)cc2OC)ccc2c1C(C)=CC(C)(C)N2` [Compound 1-26, 6-[2-Methoxy-4-(2-methylthiobenzoyloxy)phenyl]-5-(2-methoxyphenylaminomethyl)-2,2,4-trimethyl-1,2-dihydroquinoline], the figure is 90%; as for `COc1ccccc1NCc1c(-c2ccc(OC(=O)c3ccccc3C)cc2OC)ccc2c1C(C)=CC(C)(C)N2` [Compound 1-5, 6-[2-Methoxy-4-(2-methylbenzoyloxy)phenyl]-5-(2-methoxyphenylaminomethyl)-2,2,4-trimethyl-1,2-dihydroquinoline], 93%.

On to `COc1cc(OC(=O)c2ccccc2Cl)ccc1-c1ccc2c(c1CNc1cc(F)ccc1C)C(C)=CC(C)(C)N2` [Compound 1-9, 6-[4-(2-Chlorobenzoyloxy)-2-methoxyphenyl]-5-(5-fluoro-2-methylphenylaminomethyl)-2,2,4-trimethyl-1,2-dihydroquinoline], for which the inhibition at 20 µM (stock) was 90%.
